From patent US6673749B1, “Use of phyllocladane diterpenoids for plant growth promotion and alleviation of growth retardant allelochemicals, and method therefor” (Council of Scientific and Industrial Research, priority 2002, dated 2004)

Assays:
Assay type in all cases: in vivo
Sesbania cannabina [1] = assay: Antagonistic effect with Artemisia annua seed extract on germination and seedling growth; settings: A. annua seed extract (0.65 g seeds/100 ml) alone or mixed 1:1 with 0.01 μm compound, control = 100%
Method: (§1) On the other hand, it is evident from Exp. 1-4 that phyllocladane diterpenenoids have produced germination and growth promoting activities on various plant species. To find out the combined effect of A. annua extract and phyllocladane diterpenoides on the germination and seedling growth of different plant species, 1:1 ratio of these compounds and A.annua extract were tested in the present experiment. For this, Hibiscus sabdariffa and Sesbania cannabina seeds were germinated in A.annua seed extract and solutions prepared by mixing this extract with 0.01 μm calliterpenone and calliterpenone mono-acetate respectively (Table 7). For the preparation of A.annua extract, 1.3 g seeds were soaked in 100 ml of distilled water for 24 hrs for testing on H. sabdariffa. Since, at this concentration, seeds of this species have shown 69% mortality which may be taken as good indicator. This effect was also recorded in S.cannabina. Since, in this case, seeds were almost half in weight as compared to the seeds of H. sabdariffa, accordingly, 0.65 g A. annua seeds were soaked in 100 ml of distilled water for 24 hrs to produce identical constraints in S. cannabina. For control, seeds were germinated in distilled water and all the observations were compared with it. […] Therefore, calliterpenone and its derivatives can be used to nullify the effects of other growth retardants/allelochemicals in the fields for their reclamation.

Hibiscus sabdariffa [2] = assay: as above; settings: A. annua seed extract (1.3 g seeds/100 ml) alone or mixed 1:1 with 0.01 μm compound, control = 100%
Method: as §1

Vigna radiata = assay: Seed germination and seedling shoot/root growth test in petridishes; settings: Vigna radiata, control = 100%
Method: (§2) As noted above the activity of phyllocladane diterpenoids used in the practice of this invention was observed when these compounds were tested for their effects on seed germination, root and shoot growth of certain plant species and their antagonistic effect on plant growth retardants by the method described by Bagchi G. D. et al Phytochemistry, 45(6)1131-1133, 1997.
(§3) Plant growth promoting activity of calliterpenone, calliterpenone monoacetate, and calliterpenone di-acetate was examined at 0.1, 0.01 and 0.001 μM concentrations. The tests were conducted against seeds of two monocotyledonous (Hordeum vulgare and Triticum aestivum) and two dicotyledonous plants (Vigna radiata and Trigonella foenum-graecum). Control seeds were germinated in distilled water and all the observations were compared with […]. The root and shoot growth of all the plant species were affected by the phyllocladane diterpenoids, although the extent of effect varied considerably in the plant species with the chemicals and their concentrations. […] Details of the procedure adopted and results obtained are discussed in the various examples.
(§4) 100 ml stalk solutions of 0.1 μM concentration were prepared by dissolving required amounts of various test compounds (depending upon their molecular weights) in minimum amount of ethanol or acetone and adding distilled water. From this stalk solution, 0.01 μM and 0.001 μM concentrations were prepared. Calliterpenone and calliterpenone di acetate was dissolved in 2.0 ml absolute ethanol (Merc), while; calliterpenone monoacetate, isopropylideno calliterpenone and trihydroxy calliterpenone were dissolved in 2.0 ml spectral grade acetone (Ranbaxy). The respective control test solutions of distilled water of each concentration also contained equal amount of absolute ethanol or acetone. For an assay, 10 seeds were placed on Whatman filter paper (moistened with 5.0 ml of test solution in a 9.0 cm diameter petridish (in triplicate). The pteridishes were incubated for 9 days in a germinator, maintained at 25.0±1.0° C. with 90% humidity and 4 hr light/day. At the end of incubation, observations were recorded on the seedlings in terms of germination, shoot and root growth. The data on the length of shoot and root of seedlings and number of seeds germinated in different concentrations of compounds were compared with the control, which was taken as 100%. The data thus obtained were presented in Table-1.
(§5) Root growth of seedlings was measured in the similar way as shoot growth from the experiment as described in Example 1.
(§6) Effect of test compounds on germination was observed from the same experiment as described in Example 1.

Triticum aestivum = assay: as above; settings: control = 100%
Method: as §2, §3, §4, §5, §6

Hordeum vulgare = assay: as above; settings: control = 100%
Method: as §2, §3, §4, §5, §6

[3] = system: Trigonella foenum-graecum; assay: as above; settings: for Percent (%) germination of seeds in relation to control on 9th day after sowing / Percent (%) root growth of seedlings in relation to control on 9th day after sowing / Percent (%) shoot growth of seedlings in relation to control on 9th day after sowing: Trigonella foenum graecum, control = 100%
Method: as §2, §3, §4, §5, §6

Sesbania cannabina [4] = assay: Seed germination and seedling growth, comparison with GA3 (Example 4)
Method: as §4
(§7) Effect of calliterpenone and its derivatives on seed germination and seedling growth in Hibiscus sabdariffa and Sesbania cannabina were measured in the similar way as these were measured in Example-1.

Hibiscus sabdariffa [5] = assay: as above
Method: as §4, §7

Q: Which results are given for CC1(C)C(=O)CC[C@@]2(C)[C@H]1CC[C@@]13C[C@H](CC[C@@H]12)[C@@](O)(CO)C3 [Calliterpenone, 16α, 17 dihydroxy phyllocladan-3 one]?
A: Percent (%) germination in relation to control on the 9th day after sowing (Sesbania cannabina [1]): no improvement in seed germination; Percent (%) seedling growth, Root, in relation to control on the 9th day after sowing (Sesbania cannabina [1]): 225%; Percent (%) seedling growth, Stem, in relation to control on the 9th day after sowing (Sesbania cannabina [1]): 144%; Percent (%) germination in relation to control on the 9th day after sowing (Hibiscus sabdariffa [2]): nullified the germination retarding effect; Percent (%) seedling growth, Root, in relation to control on the 9th day after sowing (Hibiscus sabdariffa [2]): 150%; Percent (%) seedling growth, Stem, in relation to control on the 9th day after sowing (Hibiscus sabdariffa [2]): 130%; Percent (%) germination of seeds in relation to control on 9th day after sowing (Vigna radiata; 0.001 μM): 250%; Percent (%) root growth of seedlings in relation to control on 9th day after sowing (Vigna radiata; 0.001 μM): 87%; Percent (%) shoot growth of seedlings in relation to control on 9th day after sowing (Vigna radiata; 0.001 μM): 121%; Percent (%) germination of seeds in relation to control on 9th day after sowing (Vigna radiata; 0.01 μM): 150%; Percent (%) root growth of seedlings in relation to control on 9th day after sowing (Vigna radiata; 0.01 μM): 138%; Percent (%) shoot growth of seedlings in relation to control on 9th day after sowing (Vigna radiata; 0.01 μM): 134%; Percent (%) germination of seeds in relation to control on 9th day after sowing (Vigna radiata; 0.1 μM): 150%; Percent (%) root growth of seedlings in relation to control on 9th day after sowing (Vigna radiata; 0.1 μM): 76%; Percent (%) shoot growth of seedlings in relation to control on 9th day after sowing (Vigna radiata; 0.1 μM): 128%; Percent (%) germination of seeds in relation to control on 9th day after sowing (Triticum aestivum; 0.001 μM): 100%; Percent (%) root growth of seedlings in relation to control on 9th day after sowing (Triticum aestivum; 0.001 μM): 136%; Percent (%) shoot growth of seedlings in relation to control on 9th day after sowing (Triticum aestivum; 0.001 μM): 105%; Percent (%) germination of seeds in relation to control on 9th day after sowing (Triticum aestivum; 0.01 μM): 100%; Percent (%) root growth of seedlings in relation to control on 9th day after sowing (Triticum aestivum; 0.01 μM): 80%; Percent (%) shoot growth of seedlings in relation to control on 9th day after sowing (Triticum aestivum; 0.01 μM): 100%; Percent (%) germination of seeds in relation to control on 9th day after sowing (Triticum aestivum; 0.1 μM): 100%; Percent (%) root growth of seedlings in relation to control on 9th day after sowing (Triticum aestivum; 0.1 μM): 80%; Percent (%) shoot growth of seedlings in relation to control on 9th day after sowing (Triticum aestivum; 0.1 μM): 95%; Percent (%) germination of seeds in relation to control on 9th day after sowing (Hordeum vulgare; 0.001 μM): 100%; Percent (%) root growth of seedlings in relation to control on 9th day after sowing (Hordeum vulgare; 0.001 μM): 116%; Percent (%) shoot growth of seedlings in relation to control on 9th day after sowing (Hordeum vulgare; 0.001 μM): 118%; Percent (%) germination of seeds in relation to control on 9th day after sowing (Hordeum vulgare; 0.01 μM): 100%; Percent (%) root growth of seedlings in relation to control on 9th day after sowing (Hordeum vulgare; 0.01 μM): 116%; Percent (%) shoot growth of seedlings in relation to control on 9th day after sowing (Hordeum vulgare; 0.01 μM): 103%; Percent (%) germination of seeds in relation to control on 9th day after sowing (Hordeum vulgare; 0.1 μM): 100%; Percent (%) root growth of seedlings in relation to control on 9th day after sowing (Hordeum vulgare; 0.1 μM): 82%; Percent (%) shoot growth of seedlings in relation to control on 9th day after sowing (Hordeum vulgare; 0.1 μM): 102%; Percent (%) germination of seeds in relation to control on 9th day after sowing ([3]; 0.001 μM): 113%; Percent (%) root growth of seedlings in relation to control on 9th day after sowing ([3]; 0.001 μM): 141%; Percent (%) shoot growth of seedlings in relation to control on 9th day after sowing ([3]; 0.001 μM): 121%; Percent (%) germination of seeds in relation to control on 9th day after sowing ([3]; 0.01 μM): 125%; Percent (%) root growth of seedlings in relation to control on 9th day after sowing ([3]; 0.01 μM): 164%; Percent (%) shoot growth of seedlings in relation to control on 9th day after sowing ([3]; 0.01 μM): 130%; Percent (%) germination of seeds in relation to control on 9th day after sowing ([3]; 0.1 μM): 113%; Percent (%) root growth of seedlings in relation to control on 9th day after sowing ([3]; 0.1 μM): 150%; Percent (%) shoot growth of seedlings in relation to control on 9th day after sowing ([3]; 0.1 μM): 121%; Seed germination as compared to 100% in control ([3]; Trigonella foenum-graceum, concentration not specified): 113%; Germination as compared to respective control (Sesbania cannabina [4]; 0.001 μM): 150%; Germination compared with GA3 (Sesbania cannabina [4]; 0.001 μM): 150%; Root growth as compared to respective control (Sesbania cannabina [4]; 0.001 μM): 119%; Seed Ger. (Sesbania cannabina [4]; 0.001 μM): 3; Shoot growth as compared to GA3 (100%) (Sesbania cannabina [4]; 0.001 μM): 104%; Shoot growth as compared to respective control (Sesbania cannabina [4]; 0.001 μM): 120%; Root Growth (mm) 3rd Day (Sesbania cannabina [4]; 0.001 μM): 30.0 mm; Shoot growth 3rd Day (Sesbania cannabina [4]; 0.001 μM): 17.0; Root Growth (mm) 6th Day (Sesbania cannabina [4]; 0.001 μM): 33.6 mm; Shoot growth 6th Day (Sesbania cannabina [4]; 0.001 μM): 86.2; Root Growth (mm) 9th Day (Sesbania cannabina [4]; 0.001 μM, 9th day): 43.4 mm; Root growth as compared to GA3 taken as 100% (Sesbania cannabina [4]; 0.001 μM, 9th day): 109%; Shoot growth 9th Day (Sesbania cannabina [4]; 0.001 μM, 9th day): 108.2; Seed Ger. (Sesbania cannabina [4]; 0.01 μM): 3; Root Growth (mm) 3rd Day (Sesbania cannabina [4]; 0.01 μM): 14.5 mm; Shoot growth 3rd Day (Sesbania cannabina [4]; 0.01 μM): 14.2; Root Growth (mm) 6th Day (Sesbania cannabina [4]; 0.01 μM): 21.0 mm; Shoot growth 6th Day (Sesbania cannabina [4]; 0.01 μM): 48.8; Root Growth (mm) 9th Day (Sesbania cannabina [4]; 0.01 μM, 9th day): 34.8 mm; Shoot growth 9th Day (Sesbania cannabina [4]; 0.01 μM, 9th day): 67.3; Seed Ger. (Sesbania cannabina [4]; 0.1 μM): 4; Root Growth (mm) 3rd Day (Sesbania cannabina [4]; 0.1 μM): 7.3 mm; Shoot growth 3rd Day (Sesbania cannabina [4]; 0.1 μM): 10.3; Root Growth (mm) 6th Day (Sesbania cannabina [4]; 0.1 μM): 16.0 mm; Shoot growth 6th Day (Sesbania cannabina [4]; 0.1 μM): 39.3; Root Growth (mm) 9th Day (Sesbania cannabina [4]; 0.1 μM, 9th day): 24.8 mm; Shoot growth 9th Day (Sesbania cannabina [4]; 0.1 μM, 9th day): 61.5; Germination as compared to respective control (Hibiscus sabdariffa [5]; 0.001 μM): 133%; Germination compared with GA3 (Hibiscus sabdariffa [5]; 0.001 μM): 133%; Root growth as compared to respective control (Hibiscus sabdariffa [5]; 0.001 μM): 157%; Seed Ger. (Hibiscus sabdariffa [5]; 0.001 μM): 4; Shoot growth as compared to GA3 (100%) (Hibiscus sabdariffa [5]; 0.001 μM): 110%; Shoot growth as compared to respective control (Hibiscus sabdariffa [5]; 0.001 μM): 182%; Root Growth (mm) 3rd Day (Hibiscus sabdariffa [5]; 0.001 μM): 12.6 mm; Shoot growth 3rd Day (Hibiscus sabdariffa [5]; 0.001 μM): 27.1; Root Growth (mm) 6th Day (Hibiscus sabdariffa [5]; 0.001 μM): 28.6 mm; Shoot growth 6th Day (Hibiscus sabdariffa [5]; 0.001 μM): 61.0; Root Growth (mm) 9th Day (Hibiscus sabdariffa [5]; 0.001 μM, 9th day): 33.4 mm; Root growth as compared to GA3 taken as 100% (Hibiscus sabdariffa [5]; 0.001 μM, 9th day): 134%; Shoot growth 9th Day (Hibiscus sabdariffa [5]; 0.001 μM, 9th day): 94.6; Seed Ger. (Hibiscus sabdariffa [5]; 0.01 μM): 2; Root Growth (mm) 3rd Day (Hibiscus sabdariffa [5]; 0.01 μM): 17.0 mm; Shoot growth 3rd Day (Hibiscus sabdariffa [5]; 0.01 μM): 39.8; Root Growth (mm) 6th Day (Hibiscus sabdariffa [5]; 0.01 μM): 19.2 mm; Shoot growth 6th Day (Hibiscus sabdariffa [5]; 0.01 μM): 78.0; Root Growth (mm) 9th Day (Hibiscus sabdariffa [5]; 0.01 μM, 9th day): 25.8 mm; Shoot growth 9th Day (Hibiscus sabdariffa [5]; 0.01 μM, 9th day): 85.0; Seed Ger. (Hibiscus sabdariffa [5]; 0.1 μM): 2; Root Growth (mm) 3rd Day (Hibiscus sabdariffa [5]; 0.1 μM): 14.0 mm; Shoot growth 3rd Day (Hibiscus sabdariffa [5]; 0.1 μM): 13.6; Root Growth (mm) 6th Day (Hibiscus sabdariffa [5]; 0.1 μM): 21.5 mm; Shoot growth 6th Day (Hibiscus sabdariffa [5]; 0.1 μM): 52.5; Root Growth (mm) 9th Day (Hibiscus sabdariffa [5]; 0.1 μM, 9th day): 23.0 mm; Shoot growth 9th Day (Hibiscus sabdariffa [5]; 0.1 μM, 9th day): 72.5
